Source: ChEMBL document CHEMBL2046271, “Terpenes from Copaifera demonstrated in vitro antiparasitic and synergic activity” (J Med Chem, 2012)
Calls of active or inactive are those of the source. No cut-off for these calls is given here.

How the values were obtained:
Trypanosoma cruzi [1] = assay: Antitrypanosomal activity against Trypanosoma cruzi Y epimastigotes after 96 hrs by neubauer chamber; format: functional, organism-based
Trypanosoma cruzi [2] = assay: Antitrypanosomal activity against Trypanosoma cruzi Y trymastigotes infected in monkey LLC-MK2 cells after 24 hrs by Brenner counter method; format: functional, organism-based; conditions: LLC-MK2, 24 h
Trypanosoma cruzi [3] = assay: Antitrypanosomal activity against Trypanosoma cruzi Y amastigotes infected in monkey LLC-MK2 cells after 96 hrs by Geimsa staining method; format: functional, organism-based; conditions: LLC-MK2, 96 h
[4] = Cytotoxicity against monkey LLC-MK2 cells after 96 hrs by sulforhodamine B assay; format: cell-based, Macaca mulatta; conditions: rhesus monkey
[5] = Toxicity in human RBC assessed as hemolysis after 3 hrs; format: cell-based, Erythrocyte; conditions: red blood cells
[6] = Selectivity ratio of CC50 for monkey LLC-MK2 cells to IC50 for Trypanosoma cruzi Y amastigotes; format: ADME, cell-based; conditions: LLC-MK2 cells versus Trypanosoma cruzi Y amastigotes, read-out: Ratio CC50/IC50
Trypanosoma cruzi [7] = assay: Antitrypanosomal activity against Trypanosoma cruzi Y trymastigotes infected in monkey LLC-MK2 cells after 24 hrs by Brenner counter method in presence of copalic; format: functional
Trypanosoma cruzi [8] = assay: Antitrypanosomal activity against Trypanosoma cruzi Y trymastigotes infected in monkey LLC-MK2 cells after 24 hrs by Brenner counter method in presence of beta-hydroxycopalic; format: functional
Trypanosoma cruzi [9] = assay: Antitrypanosomal activity against Trypanosoma cruzi Y infected in monkey LLC-MK2 cells assessed as reduction in number of amastigotes after 96 hrs by Geimsa staining method; format: functional; parameters: concentration or dose not given beside the values
Trypanosoma cruzi [10] = assay: Antitrypanosomal activity against Trypanosoma cruzi Y epimastigotes assessed as lipid peroxidation at 400 uM after 6 hrs; format: functional
Trypanosoma cruzi [11] = assay: Antitrypanosomal activity against Trypanosoma cruzi Y epimastigotes assessed as gated cells in lower left quadrant at 400 uM after 3 hrs by propidium iodide staining-based flow cytometric analysis (reference value: 89.35%); format: functional
Trypanosoma cruzi [12] = assay: Antitrypanosomal activity against Trypanosoma cruzi Y epimastigotes assessed as gated cells in lower right quadrant at 400 uM after 3 hrs by propidium iodide staining-based flow cytometric analysis (reference value: 5.41%); format: functional
Trypanosoma cruzi [13] = assay: Antitrypanosomal activity against Trypanosoma cruzi Y epimastigotes assessed as gated cells in upper right quadrant at 400 uM after 3 hrs by propidium iodide staining-based flow cytometric analysis (reference value: 1.40%); format: functional
Trypanosoma cruzi [14] = assay: Antitrypanosomal activity against Trypanosoma cruzi Y epimastigotes assessed as gated cells in upper left quadrant at 400 uM after 3 hrs by propidium iodide staining-based flow cytometric analysis (reference value: 3.76%); format: functional
Trypanosoma cruzi [15] = assay: Antitrypanosomal activity against Trypanosoma cruzi Y epimastigotes assessed as gated cells in lower left quadrant at 400 uM after 3 hrs by rhodamine 123 staining-based flow cytometric analysis (reference value: 2.40%); format: functional
Trypanosoma cruzi [16] = assay: Antitrypanosomal activity against Trypanosoma cruzi Y epimastigotes assessed as gated cells in lower right quadrant at 400 uM after 3 hrs by rhodamine 123 staining-based flow cytometric analysis (reference value: 1.12%); format: functional
Trypanosoma cruzi [17] = assay: Antitrypanosomal activity against Trypanosoma cruzi Y epimastigotes assessed as gated cells in upper right quadrant at 400 uM after 3 hrs by rhodamine 123 staining-based flow cytometric analysis (reference value: 94.94%); format: functional
Trypanosoma cruzi [18] = assay: Antitrypanosomal activity against Trypanosoma cruzi Y epimastigotes assessed as gated cells in upper left quadrant at 400 uM after 3 hrs by rhodamine 123 staining-based flow cytometric analysis (reference value: 1.54%); format: functional
Trypanosoma cruzi [19] = assay: Antitrypanosomal activity against Trypanosoma cruzi Y epimastigotes assessed as kinetoplast disorganisation at compound IC50 concentration after 96 hrs by transmission electron microscopic analysis; format: functional, organism-based
Trypanosoma cruzi [20] = assay: Antitrypanosomal activity against Trypanosoma cruzi Y epimastigotes assessed as formation of concentric membranous vacuoles at compound IC50 concentration after 96 hrs by transmission electron microscopic analysis; format: functional, organism-based
[21] = Toxicity in human RBC assessed as hemolysis at 1552 uM after 3 hrs; format: cell-based, Erythrocyte; conditions: red blood cells, read-out: Activity
Trypanosoma cruzi [22] = assay: Antitrypanosomal activity against Trypanosoma cruzi Y epimastigotes assessed as organelle disorganization at compound IC50 concentration after 96 hrs by transmission electron microscopic analysis; format: functional, organism-based
Trypanosoma cruzi [23] = assay: Antitrypanosomal activity against Trypanosoma cruzi Y epimastigotes assessed as membranous vacuole formation in all body parts at compound IC50 concentration after 96 hrs by transmission electron microscopic analysis; format: functional, organism-based
Trypanosoma cruzi [24] = assay: Antitrypanosomal activity against Trypanosoma cruzi Y epimastigotes assessed as pronounced swelling of mitochondria at compound IC50 concentration after 96 hrs by transmission electron microscopic analysis; format: functional, organism-based

Row | Compound | IC50 (Trypanosoma cruzi [1]) | EC50 (Trypanosoma cruzi [2]) | IC50 (Trypanosoma cruzi [3]) | CC50 at 96 h [4] | HC50 at 3 h [5] | selectivity ratio [6] | Activity (Trypanosoma cruzi [9]) | Activity (Trypanosoma cruzi [10]) | Activity (Trypanosoma cruzi [11]) | Activity (Trypanosoma cruzi [12]) | Activity (Trypanosoma cruzi [13]) | Activity (Trypanosoma cruzi [14]) | Activity (Trypanosoma cruzi [15]) | Activity (Trypanosoma cruzi [16]) | Activity (Trypanosoma cruzi [17]) | Activity (Trypanosoma cruzi [18]) | other results
1 | O=C(Cn1ccnc1[N+](=O)[O-])NCc1ccccc1 [BENZNIDAZOLE] | 6.5 µM | 34.5 µM | 19.2 µM | 615 µM | > 1920 µM | 32 |  |  |  |  |  |  |  |  |  |  | fractional inhibitory concentration index (FICI) (Trypanosoma cruzi [7]): 0.95; fractional inhibitory concentration index (FICI) (Trypanosoma cruzi [8]): 1.01
2 | C=C1CC[C@@H]2[C@](C)(CCC[C@]2(C)C(=O)O)[C@H]1CC/C(C)=C/C(=O)O [AGATHIC ACID] | 86.8 µM | 823 µM | 14.9 µM | 56.8 µM | 1050 µM | 3.8 | 38% | inactive | 14.2% | 2.51% | 32.97% | 50.32% | 2.07% | 0.45% | 84.11% | 13.37% | 
3 | C=C1CC[C@@H]2C(C)(C)CCC[C@@]2(C)[C@@H]1CC/C(C)=C/C(=O)OC [METHYL COPALATE] | 83.3 µM | 377 µM | 2.5 µM | 69.1 µM | 1600 µM | 27.6 | 38% | inactive | 85.91% | 9.22% | 2.25% | 2.62% | 0.66% | 0.21% | 98.49% | 0.64% | 
4 | C=C1CC/C=C(\C)CC[C@@H]2[C@@H]1CC2(C)C [BETA-CARYOPHYLLENE] | 78.4 µM | 1590 µM | 63.7 µM | 1720 µM | > 2450 µM | 26.9 | 25% | 30% | 9.53% | 0.26% | 11.4% | 78.81% | 52.01% | 15.47% | 29.35% | 3.17% | fractional inhibitory concentration index (FICI) (Trypanosoma cruzi [7]): 0.12; fractional inhibitory concentration index (FICI) (Trypanosoma cruzi [8]): 0.86; Activity (Trypanosoma cruzi [19]): Active; Activity (Trypanosoma cruzi [20]): Active
5 | C=C1CC[C@@H]2[C@](C)(CCC[C@@]2(C)C(=O)O)[C@H]1CCc1ccoc1 [POLYALTIC ACID] | 168 µM | 965 µM | 28.4 µM | 60.1 µM | > 1580 µM | 2.1 | 38% | inactive | 26.71% | 25.8% | 29.09% | 16.7% | 1.85% | 0.91% | 95.96% | 1.28% | 
6 | C=C1C[C@@]23CC[C@H]4[C@@](C)(CCC[C@@]4(C)C(=O)O)[C@@H]2CC[C@@H]1C3 [KAURENOIC ACID] | 167 µM | 596 µM | 16.5 µM | 76.1 µM | 464 µM | 4.6 | 38% | inactive | 22.65% | 13.27% | 18.53% | 45.55% | 4.85% | 0.96% | 91.64% | 2.55% | 
7 | C=C1CC[C@@H]2[C@](C)(CCC[C@@]2(C)C(=O)O)[C@H]1CC[C@H](C)CC(=O)O [PINIFOLIC ACID] | 854 µM | 1630 µM | 18.6 µM | 252 µM | > 1550 µM | 13.5 | 25% | inactive | 91.66% | 3.85% | 0.71% | 3.78% | 1.02% | 0.21% | 97.96% | 0.81% | hemolysis at 3 h, 1552 µM [21]: 8%
8 | C=C1CC[C@@H]2C(C)(C)[C@@H](O)CC[C@@]2(C)[C@@H]1CC/C(C)=C/C(=O)O | 41.2 µM | 453 µM | 1.8 µM | 31.2 µM | 125 µM | 17.3 | 40% | inactive | 2.56% | 0.15% | 24.29% | 73% | 2.27% | 0.01% | 73.66% | 24.06% | Activity (Trypanosoma cruzi [22]): Active; Activity (Trypanosoma cruzi [23]): Active
9 | C[C@@H]1[C@H](O)[C@@H](C)/C=C/C=C/C=C/C=C/C=C/C=C/C=C/[C@H](O[C@@H]2O[C@H](C)[C@@H](O)[C@H](N)[C@@H]2O)C[C@@H]2O[C@](O)(C[C@@H](O)C[C@@H](O)[C@H](O)CC[C@@H](O)C[C@@H](O)CC(=O)O[C@H]1C)C[C@H](O)[C@H]2C(=O)O [AMPHOTERICIN B] |  |  |  |  | 50.8 µM |  |  |  |  |  |  |  |  |  |  |  | 
10 | C=C1CC[C@@H]2C(C)(C)CCC[C@@]2(C)[C@@H]1CC/C(C)=C/C(=O)O [COPALIC ACID] | 42.7 µM | 444 µM | 1.3 µM | 39.4 µM | 65.7 µM | 30.3 | 48% | 30% | 5.17% | 0.71% | 50.54% | 43.58% | 2.86% | 0.1% | 72.57% | 24.47% | Activity (Trypanosoma cruzi [24]): Active
